Converted amounts (≈) assume the structure as drawn.
Tested on: Staphylococcus aureus
Assay: Minimum inhibitory concentration against methicillin-resistant Staphylococcus aureus
Assay type: functional
Settings: not given

For `Clc1ccc2c(c1)[C@H]1OCC[C@H]1[C@@H](c1c[nH]c3ccc(Br)cc13)N2` (stereo in doubt), the MIC was 0.31 µg/mL (≈ 0.768 µM).
Work on `Clc1ccc2c(c1)[C@H]1OCC[C@H]1[C@@H](c1c[nH]c3ccc(Br)cc13)N2` (stereo in doubt; 9) yielded an MIC of 3.13 µg/mL (≈ 7.75 µM).

Same assay, conditions: Staphylococcus aureus; read-out: MIC

`OCC#Cc1ccc2c(c1)[C@H]1OCC[C@H]1[C@@H](c1c[nH]c3ccc(Br)cc13)N2` and `Clc1ccc2c(c1)[C@H]1OCC[C@H]1[C@H](c1c[nH]c3ccc(Br)cc13)N2` are the same in MIC: 3.13 µg/mL (≈ 7.39 µM) for the first, 3.13 µg/mL (≈ 7.76 µM) for the second.

Compared with `CC(C)(C)OC(=O)N1CC[C@H]2[C@@H](c3c[nH]c4ccc(Br)cc34)Nc3ccc(Cl)cc3[C@H]21`, `CC(C)(C)OC(=O)N1CC[C@@H]2[C@H]1c1cc(Cl)ccc1N[C@H]2c1c[nH]c2ccc(Br)cc12` is 2-fold higher in MIC: 0.78 µg/mL (≈ 1.55 µM) for the first, 1.56 µg/mL (≈ 3.1 µM) for the second.

First: Fc1ccc2c([C@H]3Nc4ccc(Cl)cc4[C@H]4OCC[C@@H]34)c[nH]c2c1
Second: Fc1ccc2c([C@@H]3Nc4ccc(Cl)cc4[C@H]4OCC[C@H]43)c[nH]c2c1
The MIC of the first is 2-fold lower: 6.25 µg/mL (≈ 18.2 µM) for the first, 12.5 µg/mL (≈ 36.5 µM) for the second.

First: CN1c2ccc(Cl)cc2[C@H]2OCC[C@H]2[C@H]1c1c[nH]c2ccc(Br)cc12
Second: Clc1ccc2c(c1)N(Cl)[C@H](c1c[nH]c3ccc(Br)cc13)[C@@H]1CCO[C@H]21
The MIC of the first is higher: greater than 25 µg/mL for the first, 1.56 µg/mL (≈ 3.56 µM) for the second.

`FC(F)(F)c1cccc2c1N[C@H](c1c[nH]c3ccc(Br)cc13)[C@@H]1CCO[C@H]21` and `Fc1cccc2c1N[C@H](c1c[nH]c3ccc(Br)cc13)[C@@H]1CCO[C@H]21` are the same in MIC: 0.78 µg/mL (≈ 1.78 µM) for the first, 0.78 µg/mL (≈ 2.01 µM) for the second.

Compared with `COc1cccc2c1N[C@H](c1c[nH]c3ccc(Br)cc13)[C@@H]1CCO[C@H]21`, `Brc1ccc2[nH]cc([C@H]3Nc4c(I)cccc4[C@H]4OCC[C@@H]34)c2c1` is lower in MIC: 1.56 µg/mL (≈ 3.91 µM) for the first, less than 0.39 µg/mL for the second.

Compared with `Clc1ccc2c(c1)[C@H]1NCC[C@H]1[C@@H](c1c[nH]c3ccc(Cl)cc13)N2`, `Clc1ccc2c(c1)[C@H]1NCC[C@H]1[C@H](c1c[nH]c3ccc(Cl)cc13)N2` is 2-fold higher in MIC: 3.13 µg/mL (≈ 8.74 µM) for the first, 6.25 µg/mL (≈ 17.4 µM) for the second.

Going from `Cc1[nH]c2ccccc2c1[C@H]1Nc2ccc(Cl)cc2[C@H]2OCC[C@@H]12` to `Clc1ccc2c(c1)[C@H]1OCC[C@H]1[C@H](c1c[nH]c3ccccc13)N2`, the MIC falls from greater than 25 µg/mL to 6.25 µg/mL (≈ 19.2 µM).

Compared with `Clc1ccc2c(c1)[C@H]1OCC[C@H]1[C@@H](c1c[nH]c3ccc(Cl)cc13)N2`, `Clc1ccc2c(c1)[C@H]1OCC[C@H]1[C@H](c1c[nH]c3ccc(Cl)cc13)N2` is 4-fold higher in MIC: 0.78 µg/mL (≈ 2.17 µM) for the first, 3.13 µg/mL (≈ 8.71 µM) for the second.

Compared with `Brc1ccc2[nH]cc([C@H]3Nc4ccc(CCCN5CCCCC5)cc4[C@H]4OCC[C@@H]34)c2c1`, `Brc1ccc2[nH]cc([C@H]3Nc4ccc(C#CCN5CCCCC5)cc4[C@H]4OCC[C@@H]34)c2c1` is 8-fold lower in MIC: 12.5 µg/mL (≈ 25.3 µM) for the first, 1.56 µg/mL (≈ 3.18 µM) for the second.

Compared with `Clc1cc(Cl)c2c(c1)[C@H]1OCC[C@H]1[C@@H](c1c[nH]c3ccc(Br)cc13)N2`, `Fc1ccc2c(c1)[C@H]1OCC[C@H]1[C@@H](c1c[nH]c3ccc(Br)cc13)N2` is 4-fold higher in MIC: 1.56 µg/mL (≈ 3.56 µM) for the first, 6.25 µg/mL (≈ 16.1 µM) for the second.

First: Clc1ccc2c(c1)[C@H]1OCC[C@H]1[C@@H](c1c[nH]c3ccccc13)N2
Second: Clc1ccc2ccc(-c3c[nH]c4ccc(Br)cc34)nc2c1
The MIC of the first is higher: greater than 25 µg/mL for the first, 0.6 µg/mL (≈ 1.68 µM) for the second.

With `NCc1cc(-c2c[nH]c3ccc(Br)cc23)nc2cc(Cl)ccc12` the MIC was 0.78 µg/mL (≈ 2.02 µM).

Tested on: Enterococcus faecium
Assay: Minimum inhibitory concentration against vancomycin-resistant Enterococcus faecium (VRE)
Assay type: functional
Settings: not given

`Clc1ccc2c(c1)[C@H]1NCC[C@H]1[C@@H](c1c[nH]c3ccc(Cl)cc13)N2` and `Clc1ccc2c(c1)[C@H]1NCC[C@H]1[C@H](c1c[nH]c3ccc(Cl)cc13)N2` cannot be ordered by MIC: greater than 25 µg/mL for the first, greater than 25 µg/mL for the second.

First: NCc1cc(-c2c[nH]c3ccc(Br)cc23)nc2cc(Cl)ccc12
Second: Clc1ccc2ccc(-c3c[nH]c4ccc(Br)cc34)nc2c1
The MIC of the first is lower: 1.56 µg/mL (≈ 4.03 µM) for the first, greater than 25 µg/mL for the second.
